Patent US20240123249A1, “ANALGESIA VIA LOW AND ULTRA-LOW FREQUENCY MAGNETIC OR ELECTROMAGNETIC FIELDS AND RELATED SYSTEMS AND METHODS” (EMulate Therapeutics, Inc., priority 2022, published 2024)

Assays:
mechanical hyperalgesia = assay: Carrageenan induced mechanical hyperalgesia, paw pressure test (Randall & Selitto); format: in vivo, rat
cold allodynia = assay: Oxaliplatin induced neuropathic cold allodynia, paw immersion test; details: rat, in vivo
tactile allodynia = assay: Bennett model of peripheral mononeuropathy, tactile allodynia by electronic Von Frey; format: in vivo, rat
[1] = 30 minutes after morphine 3 mg/kg / 24 hours after signal exposure
[2] = pair-wise Students T-test, α=0.01

SMILES: COc1ccc2c(c1)c(CC(=O)O)c(C)n2C(=O)c1ccc(Cl)cc1 [Indomethacin]
- applied pressure, carrageenan injected (injured) paw (mechanical hyperalgesia; 3 h after 2% carrageenan, signals 24 h exposure, Indomethacin 30 mg/kg, MC 1% group 218±18): 306±21 grams
- Carrageenan: statistical significance (P) versus MC 1% group, injured paw (mechanical hyperalgesia; Dunnett's test after ANOVA, N=10): 0.01
- Carrageenan model: significance versus MC 1% group, uninjured paw (mechanical hyperalgesia; left paw not injected with carrageenan, Dunnett's test): no significant differences between groups in the uninjured paws, except in the Indomethacin injected group

SMILES: CNCC[C@H](Oc1cccc2ccccc12)c1cccs1 [duloxetine]
- Oxaliplatin: statistical significance (P) versus MC 1% control group (cold allodynia): significantly increased
- leg withdrawal time (latency of hind paw withdrawal) (cold allodynia): 13.2 ± 1.6 s

SMILES: CN1CC[C@]23c4c5ccc(O)c4O[C@H]2[C@@H](O)C=C[C@H]3[C@H]1C5 [morphine]
- average force applied, control paw, Post-Tx (tactile allodynia; [1]): 578±73 grams
- average force applied, injured paw, Post-Tx (tactile allodynia; [1]): 438±51 grams
- average force applied, control paw, Pre-Tx (tactile allodynia; before treatment): 300±30 grams
- average force applied, injured paw, Pre-Tx (tactile allodynia; before treatment): 180±27 grams
- Bennett: statistical significance (P) Pre-Tx vs. Post-Tx, Control Paw (tactile allodynia; [2]): < 0.00001
- Bennett: statistical significance (P) Pre-Tx vs. Post-Tx, Injured Paw (tactile allodynia; [2]): reached statistical significance
